tested on: C1R-A2402 cells (HLA-A24+) pulsed with the same peptide; test: IFN-γ production (ELISA) by peptide-stimulated PBMC in reaction to peptide-pulsed C1R-A2402 cells; induction of HLA-A24-restricted CTL; type: cell-based, human; settings: PBMC of prostate cancer patients
Experimental: The ability of the synthesized peptide to induce HLA-A24-restricted CTL from the PBMC that was prepared from a prostate cancer patient was examined. The PBMC were prepared from blood by a method of the art. 1×10^5 PBMC were cultured with 10 μM of each peptide in each well of a U-shaped 96-well micro-culture plate (produced by Nunc) to which 200 μl of culture medium (comprising 45% RPMI-1640 culture medium, 45% AIM-V® culture medium (Invitrogen), 100 U/ml of IL-2, 0.1 mM of MEM non-essential amino acid solution (Invitrogen), and 10% FCS) was added, at 37° C. under conditions of 5% CO2-95% air. At 4 days and 7 days of culturing, half of the culture medium was removed and replaced with a culture medium having the aforementioned composition containing the peptide equivalent to the peptide that was added in the beginning. At 10 days of culturing, the cells were collected, washed, and used as effector cells (E).
Meanwhile, each synthesized peptide (10 μM) was incubated with C1R-A2402 cells (HLA-A24^+) for 2 hours at 37° C. under conditions of 5% CO2-95% air, to make the peptide of interest bind to the HLA-A24 molecule expressed on the cell surface. C1R-A2402 cells thus pulsed with each of peptide were used as target cells (T).
The effector cells were equally divided, and mixed with a variety of target cells, followed by incubating for 18 hours at 37° C. under conditions of 5% CO2-95% air. After incubation, 100 μl of supernatant was collected, and the amount of IFN-γ produced was measured by ELISA. In so doing, the effector cells were paired with the target cells in such a way that the peptide used to induce the effector cells and the peptide pulsed to C1R-A2402 cells were the same. In addition, a peptide derived from the human immunodeficiency virus (hereinafter abbreviated as HIV) was used as a control, and the quantity of IFN-γ produced by CTL that recognized C1R-A2402 cells pulsed with the HIV peptide was taken as a background and subtracted from each measurement value. Each measurement value (NET) that has been calculated was statistically processed by the Student's t-test, and those with a P value of 0.05 or below were considered to be significant. In addition, a peptide that enhanced IFN-γ production with significance by 50 pg/ml NET or more was assessed as positive. […]

Row | Substance | induction of HLA-A24-restricted CTL
1 | PSCA27-36: peptide (PSCA residues 27-36) that did not induce HLA-A24-restricted CTL (LQVENCTQLG) | did not induce
2 | PSM74-83: peptide derived from PSMA that did not induce HLA-A24-restricted CTL (LYNFTQIPHL) | did not induce
3 | PSM178-186: peptide derived from PSMA that did not induce HLA-A24-restricted CTL (NYARTEDFF) | did not induce
4 | PSM227-235: peptide derived from PSMA that did not induce HLA-A24-restricted CTL (LYSDPADYF) | did not induce
5 | PSM298-306: peptide derived from PSMA that did not induce HLA-A24-restricted CTL (GYYDAQKLL) | did not induce
6 | PSM448-456: peptide derived from PSMA that did not induce HLA-A24-restricted CTL (AYINADSSI) | did not induce
7 | PSM520-528: peptide derived from PSMA that did not induce HLA-A24-restricted CTL (DFEVFFQRL) | did not induce
8 | PSM565-574: peptide derived from PSMA that did not induce HLA-A24-restricted CTL (FYDPMFKYHL) | did not induce
9 | PSM584-593: peptide derived from PSMA that did not induce HLA-A24-restricted CTL (VFELANSIVL) | did not induce
10 | PSM606-614: peptide derived from PSMA that did not induce HLA-A24-restricted CTL (KYADKIYSI) | did not induce
11 | PSM624-633: peptide derived from PSMA that did not induce HLA-A24-restricted CTL (TYSVSFDSLF) | did not induce
12 | PSM699-708: peptide derived from PSMA that did not induce HLA-A24-restricted CTL (KYAGESFPGI) | did not induce
13 | PSM704-712: peptide derived from PSMA that did not induce HLA-A24-restricted CTL (SFPGIYDAL) | did not induce

same assay, conditions: PBMC of prostate cancer patients, 10 μM peptide, 10 days; positive = significant, 50 pg/ml NET or more; Example 1

Row | Substance | cases in which the peptide enhanced the production of IFN-γ from PBMC
14 | PSCA76-84: peptide derived from PSCA, residues 76-84, HLA-A24-binding motif (DYYVGKKNI; A peptide recognized by HLA-A24 restricted cytotoxic T lymphocytes, which is designed based on the amino acid sequence of PSCA) | 1 out of 12
15 | PSCA82-91: peptide derived from PSCA, residues 82-91, HLA-A24-binding motif (KNITCCDTDL; A peptide recognized by HLA-A24 restricted cytotoxic T lymphocytes, which is designed based on the amino acid sequence of PSCA) | 2 out of 12

— patent US20100015169A1, “Tumor Antigens” (GREEN PEPTIDE CO., LTD., priority 2001, published 2010)
